The record followed here is patent US20230107642A1 (Erasca, Inc., priority 2020, published 2023).

The experiment has as its target T1, Cys12 of the KRAS 4B G12C protein (Homo sapiens, UniProt P01116, G12C).
T1 construct: This protein contained 188 amino acids in total, including an N-terminal 6-Histidine tag; made in house; host or cells: E. coli BL21
In words: In vitro covalent adduct formation (CAF) assay, LC-MS intact mass. In kind it is binding. As to conditions: for % CAF 10 uM @ 60 min: 10 uM compound, 60 min incubation; for CAF (% after 1 hour): 10 μM compound. The gist of the method:
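Percent covalent modification from intact-mass LC-MS, by relative free versus adducted protein (adducts within 1 Da of expected mass). Reaction: 10 μM compound with 5 μM E. coli-expressed, GDP-exchanged KRAS 4B G12C in TBS pH 7.4, 4% DMSO, 1 h at 22° C.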

Take `C=CC(=O)N1[C@H](C)CN(c2nc(=O)n3c4c(c(-c5ccc(F)cc5)c(C(F)(F)F)cc24)SCC2(COC2)C3)C[C@@H]1C` [Example 1117, 8′-((3S,5R)-4-acryloyl-3,5-dimethylpiperazin-1-yl)-11′-(4-fluorophenyl)-10′-(trifluoromethyl)-2′H,4′H,6′H-spiro[oxetane-3,3′-[1,4]thiazepino [2,3,4-ij]quinazolin]-6′-one]: the “% CAF 10 uM @ 60 min” value stood at 96.9%. Turning to `C=CC(=O)N1[C@H](C)CN(c2nc(=O)n3c4c(c(-c5ccc(F)cc5)c(C(F)(F)F)cc24)SC[C@H](N2CCCC2)C3)C[C@@H]1C` [Example 1118, (R)-8-((3S,5R)-4-acryloyl-3,5-dimethylpiperazin-1-yl)-11-(4-fluorophenyl)-3-(pyrrolidin-1-yl)-10-(trifluoromethyl)-3,4-dihydro-2H,6H-[1,4]thiazepino [2,3,4-ij]quinazolin-6-one], the “% CAF 10 uM @ 60 min” value worked out at 95.7%. On the same count and under the same terms, then `C=CC(=O)N1C[C@H](C)N(c2nc(=O)n3c4c(c(-c5cc(Cl)c(F)cc5F)c(C(F)(F)F)cc24)SCC2(COC2)C3)C[C@H]1C` [Example 1122, 8′-((2S,5R)-4-acryloyl-2,5-dimethylpiperazin-1-yl)-11′-(5-chloro-2,4-difluorophenyl)-10′-(trifluoromethyl)-2′H,4′H,6′H-spiro[oxetane-3,3′-[1,4]thiazepino [2,3,4-ij]quinazolin]-6′-one], with 74.3%; and `C=CC(=O)N1CCN(c2nc(=O)n3c4c(c(-c5ccc(F)cc5F)c(C(F)(F)F)cc24)SCC2(COC2)C3)CC1` [Example 1123, 8′-(4-acryloylpiperazin-1-yl)-11′-(2,4-difluorophenyl)-10′-(trifluoromethyl)-2′H,4′H,6′H-spiro[oxetane-3,3′-[1,4]thiazepino [2,3,4-ij]quinazolin]-6′-one], with 95.2%. Still for that read-out and setting: the value for `C=CC(=O)N1[C@H](C)CN(c2nc(=O)n3c4c(c(-c5cc(Cl)c(F)cc5F)c(C(F)(F)F)cc24)SC[C@H](N2CCCC2)C3)C[C@@H]1C` [Example 1129, (3R)-8-((3S,5R)-4-acryloyl-3,5-dimethylpiperazin-1-yl)-11-(5-chloro-2,4-difluorophenyl)-3-(pyrrolidin-1-yl)-10-(trifluoromethyl)-3,4-dihydro-2H,6H-[1,4]thiazepino [2,3,4-ij]quinazolin-6-one] was 69%.

With `C=CC(=O)N1[C@H](C)CN(c2nc(=O)n3c4c(c(-c5ccc(F)cc5)c(C(F)(F)F)cc24)SC[C@@H](N2CCOCC2)C3)C[C@@H]1C` [Example 1134, (S)-8-((3S,5R)-4-acryloyl-3,5-dimethylpiperazin-1-yl)-11-(4-fluorophenyl)-3-morpholino-10-(trifluoromethyl)-3,4-dihydro-[1,4]thiazepino [2,3,4-ij]quinazolin-6(2H)-one], the “% CAF 10 uM @ 60 min” value was determined as 76.8%.

On to `O=C1CC2CN(c3nc(=O)n4c5c(c(-c6ccc(F)cc6F)c(C(F)(F)F)cc35)SCCC4)CC(C1)N2C(=O)/C=C/CF` [Example 1200, (E)-11-(2,4-difluorophenyl)-8-(9-(4-fluorobut-2-enoyl)-7-oxo-3,9-diazabicyclo[3.3.1]nonan-3-yl)-10-(trifluoromethyl)-3,4-dihydro-2H,6H-[1,4]thiazepino[2,3,4-ij]quinazolin-6-one], for which the “CAF (% after 1 hour)” value came out at 73%.

Consider `C=CC(=O)N1C[C@H](C)N(c2nc(=O)n3c4c(c(-c5ccc(F)c(Cl)c5)c(C(F)(F)F)cc24)SC[C@@H](OC)C3)C[C@H]1C` [Example 1201, (S)-8-((2S,5R)-4-acryloyl-2,5-dimethylpiperazin-1-yl)-11-(3-chloro-4-fluorophenyl)-3-methoxy-10-(trifluoromethyl)-3,4-dihydro-2H,6H-[1,4]thiazepino[2,3,4-ij]quinazolin-6-one], for which the “CAF (% after 1 hour)” value was 96%.

For the compound `C=CC(=O)N1C[C@H](C)N(c2nc(=O)n3c4c(c(-c5ccc(F)cc5)c(C(F)(F)F)cc24)SC[C@@H](OC)C3)C[C@H]1C` [Example 1202, (S)-8-((2S,5R)-4-acryloyl-2,5-dimethylpiperazin-1-yl)-11-(4-fluorophenyl)-3-methoxy-10-(trifluoromethyl)-3,4-dihydro-2H,6H-[1,4]thiazepino[2,3,4-ij]quinazolin-6-one], the “CAF (% after 1 hour)” value amounted to 97%. With `C=CC(=O)N1[C@H](C)CN(c2nc(=O)n3c4c(c(-c5ccc(F)cc5)c(C(F)(F)F)cc24)SC[C@@H](OCC)C3)C[C@@H]1C` [Example 1203, (S)-8-((3S,5R)-4-acryloyl-3,5-dimethylpiperazin-1-yl)-3-ethoxy-11-(4-fluorophenyl)-10-(trifluoromethyl)-3,4-dihydro-2H,6H-[1,4]thiazepino[2,3,4-ij]quinazolin-6-one], the “CAF (% after 1 hour)” value came to 95%.

Turning to `C=CC(=O)N1[C@H](C)CN(c2nc(=O)n3c4c(c(-c5ccc(F)c(Cl)c5)c(C(F)(F)F)cc24)SC[C@@H](OCC)C3)C[C@@H]1C` [Example 1204, (S)-8-((3S,5R)-4-acryloyl-3,5-dimethylpiperazin-1-yl)-11-(3-chloro-4-fluorophenyl)-3-ethoxy-10-(trifluoromethyl)-3,4-dihydro-2H,6H-[1,4]thiazepino[2,3,4-ij]quinazolin-6-one], the “CAF (% after 1 hour)” value came to 95%. In the case of `C=CC(=O)N1[C@H](C)CN(c2nc(=O)n3c4c(c(-c5ccc(F)cc5F)c(C(F)(F)F)cc24)SC[C@@H](OCC)C3)C[C@@H]1C` [Example 1205, (3S)-8-((3S,5R)-4-acryloyl-3,5-dimethylpiperazin-1-yl)-11-(2,4-difluorophenyl)-3-ethoxy-10-(trifluoromethyl)-3,4-dihydro-2H,6H-[1,4]thiazepino[2,3,4-ij]quinazolin-6-one], the “CAF (% after 1 hour)” value came out at 95%.

Regarding `C=CC(=O)N1[C@H](C)CN(c2nc(=O)n3c4c(c(-c5cc(Cl)c(F)cc5F)c(C(F)(F)F)cc24)SC[C@@H](OCC)C3)C[C@@H]1C` [Example 1206, (3S)-8-((3S,5R)-4-acryloyl-3,5-dimethylpiperazin-1-yl)-11-(5-chloro-2,4-difluorophenyl)-3-ethoxy-10-(trifluoromethyl)-3,4-dihydro-2H,6H-[1,4]thiazepino[2,3,4-ij]quinazolin-6-one], the “CAF (% after 1 hour)” value is reported as 92%. With `C=CC(=O)N1[C@H](C)CN(c2nc(=O)n3c4c(c(-c5ccc(F)cn5)c(C(F)(F)F)cc24)SC[C@@H](OC)C3)C[C@@H]1C` [Example 1207, (S)-8-((3S,5R)-4-acryloyl-3,5-dimethylpiperazin-1-yl)-11-(5-fluoropyridin-2-yl)-3-methoxy-10-(trifluoromethyl)-3,4-dihydro-2H,6H-[1,4]thiazepino[2,3,4-ij]quinazolin-6-one], the “CAF (% after 1 hour)” value came to 95%.

On to `C=CC(=O)N1[C@H](C)CN(c2nc(=O)n3c4c(c(-c5nc(C(F)(F)F)cs5)c(C(F)(F)F)cc24)SC[C@@H](OC)C3)C[C@@H]1C` [Example 1208, (S)-8-((3S,5R)-4-acryloyl-3,5-dimethylpiperazin-1-yl)-3-methoxy-10-(trifluoromethyl)-11-(4-(trifluoromethyl)thiazol-2-yl)-3,4-dihydro-2H,6H-[1,4]thiazepino[2,3,4-ij]quinazolin-6-one], for which the “CAF (% after 1 hour)” value came to 95%.
